From the OligoGym collection
After the bases stand the sugars from the 5' end (letter, count) and the backbone: PS all phosphorothioate, else s phosphorothioate and o phosphodiester by linkage. Methylation of C is not given here. l = locked nucleic acid (LNA); d = 2'-deoxy (DNA)

Target: SNHG14
Conditions: ASO
[1] = Mouse Primary Neuronal Cell, 0.005 µM

Sequence	target mRNA inhibition (Human Neuronal Cell, 0.2 µM) [%]	target mRNA inhibition (Human Neuronal Cell, 1 µM) [%]	target mRNA inhibition (Human Neuronal Cell, 7.5 µM) [%]	also measured
CTTTCCATTTATTTCCAT (sugars l3 d12 l3, PS)	43	51	–	–
CTTTCCATTTATTTCCATT (sugars l1 d3 l1 d11 l3, PS)	–	–	58	–
CTTTCCATTTATTTCCATT (sugars llddldddddddddlddll, PS)	–	–	61	–
CTTTCCATTTATTTCCATTT (sugars l1 d13 l1 d3 l2, PS)	–	–	35	–
CTTTCCATTTATTTCCATTT (sugars ldldddldddddddddldll, PS)	–	–	54	–
GAAAATCTCAACTACCATT (sugars l3 d1 l1 d10 l4, PS)	–	–	57	–
GAAAATCTCAACTACCATT (sugars l4 d10 l2 d1 l2, PS)	–	–	60	–
GAAAATCTCAACTACCATT (sugars ldllldddddddlddllll, PS)	–	–	57	–
GAAAATCTCAACTACCATT (sugars llddldddddddlddddll, PS)	–	–	52	–
GAAACTATTACTCCTA (sugars l2 d10 l4, PS)	44	55	–	–
GAATCTTCTAATTCCAC (sugars l2 d11 l4, PS)	29	31	–	–
GACCACACTTTCTACC (sugars l2 d12 l2, PS)	18	42	–	–
GACCACACTTTCTACCA (sugars l2 d13 l2, PS)	27	48	–	–
GACCTCAATACTCTAC (sugars l4 d10 l2, PS)	37	44	–	–
GACCTCAATACTCTACT (sugars l3 d11 l3, PS)	49	58	–	–
GATCATTCTCAACAATTA (sugars l2 d1 l2 d8 l5, PS)	–	–	26	–
GATCATTCTCAACAATTA (sugars ldllldddddddldldll, PS)	–	–	35	–
GATCATTCTCAACAATTAA (sugars lldlllddddddlllddll, PS)	–	–	-2	–
GCAACATTATTAACCACCT (sugars lddldldddddddddddll, PS)	–	–	60	–
GCACATTCTTTCTATAC (sugars l1 d1 l3 d9 l3, PS)	–	–	50	–
GCACATTCTTTCTATACC (sugars l1 d15 l2, PS)	–	–	25	–
GCACATTCTTTCTATACC (sugars ldldlldddddddlddll, PS)	–	–	54	–
GCACATTCTTTCTATACC (sugars ldldlldddddddldlll, PS)	–	–	51	–

Sequence	target mRNA inhibition (Human Neuronal Cell, 0.2 µM) [%]	target mRNA inhibition (Human Neuronal Cell, 1 µM) [%]	target mRNA inhibition (Human Neuronal Cell, 7.5 µM) [%]	also measured
GCATTAGGCACATTACAT (sugars l3 d12 l3, PS)	-8	2	–	target mRNA inhibition (Human Neuronal Cell, 5 µM): 15%
GCTCACACTAATTATT (sugars l2 d10 l4, PS)	25	43	–	–
GCTCCCAAACAACTAA (sugars l2 d12 l2, PS)	36	72	–	–
GCTTTTAACCAGAGTGG (sugars l1 d12 l4, PS)	–	–	73	–
GTTCTACTATACTTTCCT (sugars l1 d2 l1 d12 l2, PS)	–	–	53	–
GTTCTACTATACTTTCCT (sugars l2 d1 l1 d12 l2, PS)	–	–	60	–
GTTCTACTATACTTTCCT (sugars lldldlddddddddddll, PS)	–	–	63	–
GTTCTACTATACTTTCCTC (sugars lddddldddddddddldll, PS)	–	–	55	–
GTTTATACCCTTTCCA (sugars l2 d11 l3, PS)	49	58	–	–
GTTTATACCCTTTCCAAT (sugars l1 d2 l1 d12 l2, PS)	–	–	61	–
GTTTATACCCTTTCCAAT (sugars l1 d13 l4, PS)	–	–	59	–
GTTTATACCCTTTCCAAT (sugars ldddlddddddddldlll, PS)	–	–	56	–
GTTTATACCCTTTCCAAT (sugars ldlldddddddddldlll, PS)	–	–	63	–
GTTTCCATCTACTATTAA (sugars l3 d1 l1 d9 l4, PS)	–	–	55	–
GTTTCCATCTACTATTAA (sugars ldddlldddddddlldll, PS)	–	–	53	–
GTTTCCATCTACTATTAA (sugars lllddlddddddldddll, PS)	–	–	47	–
GTTTCCATCTACTATTAAT (sugars l1 d2 l2 d12 l2, PS)	–	–	62	–
GTTTCCATCTACTATTAAT (sugars ldldddddddddlldddll, PS)	–	–	51	–
TAAAATTATTTATACACCA (sugars l3 d1 l2 d9 l4, PS)	–	–	59	–
TAAAATTATTTATACACCA (sugars lddlllddddddldlllll, PS)	–	–	30	–
TAAAATTATTTATACACCA (sugars lldlldddddddldldlll, PS)	–	–	47	–
TAAAATTATTTATACACCA (sugars lllldlddddddllddlll, PS)	–	–	31	–
TAAAATTATTTATACACCAT (sugars lldddldddddddldlllll, PS)	–	–	46	–

Sequence	target mRNA inhibition (Human Neuronal Cell, 0.2 µM) [%]	target mRNA inhibition (Human Neuronal Cell, 1 µM) [%]	target mRNA inhibition (Human Neuronal Cell, 7.5 µM) [%]	also measured
TAAGCTCCATATTTAA (sugars l3 d10 l3, PS)	3	12	–	–
TAATCCCATACATCTAT (sugars l2 d11 l4, PS)	50	61	–	–
TACACAAATACTTAAATCA (sugars l4 d13 l2, PS)	7	19	–	–
TACACTTAATTATACTTCCA (sugars lddddldddddddldlddll, PS)	–	–	60	–
TACACTTAATTATACTTCCA (sugars lddldllddddddddlddll, PS)	–	–	56	–
TACATATTGTACTTCT (sugars l4 d10 l2, PS)	18	23	–	–
TACATCTCATACTTGC (sugars l2 d11 l3, PS)	–	–	–	target mRNA inhibition [1]: 96.5%
TACATCTCATACTTGC (sugars l3 d10 l3, PS)	4	-2	–	target mRNA inhibition (Human Neuronal Cell, 5 µM): 12%; target mRNA inhibition [1]: 97.4%
TACATCTCATACTTGCT (sugars l2 d13 l2, PS)	9	23	–	target mRNA inhibition (Human Neuronal Cell, 5 µM): -10%; target mRNA inhibition [1]: 84.5%
TACATTGACACCTAAT (sugars l4 d10 l2, PS)	19	17	–	–
TACTCTGCAATACACC (sugars l1 d2 l2 d9 l2, PS)	–	–	65	–
TACTCTGCAATACACC (sugars l1 d3 l1 d7 l4, PS)	–	–	63	–
TACTCTGCAATACACC (sugars l2 d1 l2 d9 l2, PS)	–	–	64	–
TACTCTGCAATACACC (sugars l2 d10 l4, PS)	50	55	–	–
TACTCTGCAATACACCA (sugars l1 d3 l1 d10 l2, PS)	–	–	54	–
TACTCTGCAATACACCA (sugars l2 d10 l1 d2 l2, PS)	–	–	61	–
TACTCTGCAATACACCA (sugars l2 d11 l4, PS)	57	71	–	–
TACTCTGCAATACACCA (sugars ldlddddddddddldll, PS)	–	–	64	–
TAGTCCTTCCTTTAACC (sugars l2 d13 l2, PS)	20	16	–	–
TATACCTTTCTTTAACCCTT (sugars l1 d15 l1 d1 l2, PS)	–	–	58	–
TATACCTTTCTTTAACCCTT (sugars lddldlddddddddddldll, PS)	–	–	62	–
TATAGCCATTCTATCT (sugars l4 d10 l2, PS)	61	67	–	–
TATCTCATGACCACCTA (sugars l2 d12 l3, PS)	43	52	–	–

Sequence	target mRNA inhibition (Human Neuronal Cell, 0.2 µM) [%]	target mRNA inhibition (Human Neuronal Cell, 1 µM) [%]	target mRNA inhibition (Human Neuronal Cell, 7.5 µM) [%]	also measured
TATCTTTCCATTTATTTCC (sugars l1 d2 l1 d13 l2, PS)	–	–	41	–
TATCTTTCCATTTATTTCC (sugars l2 d12 l1 d2 l2, PS)	–	–	44	–
TATTCTCAATTGCACTT (sugars l4 d11 l2, PS)	46	61	–	–
TATTGATATTTACTCT (sugars l2 d10 l4, PS)	30	38	–	–
TATTGATTCAATTCCCT (sugars l1 d2 l1 d10 l3, PS)	–	–	72	–
TATTGATTCAATTCCCT (sugars l1 d10 l1 d2 l3, PS)	–	–	65	–
TATTGATTCAATTCCCT (sugars l1 d12 l4, PS)	–	–	57	–
TATTGATTCAATTCCCT (sugars l2 d9 l1 d2 l3, PS)	–	–	51	–
TATTGATTCAATTCCCT (sugars l3 d9 l2 d1 l2, PS)	–	–	65	–
TATTTGTCACCAAACC (sugars l3 d10 l3, PS)	23	-2	–	–
TCACCTAATAGCACCA (sugars l2 d10 l4, PS)	60	69	–	–
TCATCCCTCCAAGAAA (sugars l2 d12 l2, PS)	-16	-28	–	target mRNA inhibition (Human Neuronal Cell, 5 µM): -48%
TCCAAACTGTCTTCTAA (sugars l3 d12 l2, PS)	36	23	–	–
TCCAACATAGATCCTC (sugars l2 d10 l4, PS)	52	65	–	–
TCCAACATAGATCCTCT (sugars l2 d11 l4, PS)	45	55	–	–
TCCATAGAATTCTTCA (sugars l4 d10 l2, PS)	51	43	–	–
TCCATTTATTTCCATTTAT (sugars ldlldddddddddldddll, PS)	–	–	50	–
TCCATTTATTTCCATTTAT (sugars llddlddddddddldldll, PS)	–	–	40	–
TCCATTTATTTCCATTTATT (sugars ldlldddddddddlddddll, PS)	–	–	46	–
TCCTATGTTAATACTT (sugars l3 d10 l3, PS)	14	34	–	–
